The source of these data is EP0069811A1, “Branched amides of L-aspartyl-D-amino acid dipeptides and compositions thereof” (PFIZER INC., priority 1981, dated 1983).

The subject of assay [1] is expert taste panel. The assay is described as follows: Sweetness potency by comparison of gustatory sweetness with a sucrose standard (expert taste panel). Type of assay: in vivo. The settings on record: aqueous solutions compared with aqueous sucrose solutions of 7-9% by an expert taste panel. On the procedure: The sweetness potency of the instant compounds was determined by comparison of their gustatory sweetnesses with sucrose. Aqueous solutions of the compound of formula (I) diluted to a suitable range of concentrations were compared with a sucrose standard by an expert taste panel. Comparisons were generally made with aqueous sucrose solutions of 7-9%, i.e., 7-9 g. per 100 ml. Higher sucrose concentrations have a distinctive mouthfeel which may influence results and lower sucrose concentration are not indicative of normal use situations. If, for example a 0.014% solution of the compound of formula (I) is judged to be equally as sweet as a 7% sucrose solution, then the sweetness potency of that compound is 7/0.014 = 500 x sucrose. All of the sweetness potency values stated herein for the compounds of the invention were determined by this method. At threshold concentrations (i.e., the lowest concentration at which sweetness is first noticed, which for sucrose is ordinarily at concentrations in the range of 2-3%), the potency of a sweetener, such as the compounds of the invention, is generally twice that observed by comparison of its gustatory sweetness with 7-9% solutions of sucrose.

Assay [2] relates to taste panel. The assay is described as follows: Taste panel evaluation of blends with sodium saccharin for taste acceptability and sweetness intensity against aqueous sucrose standards. Type of assay: in vivo. As to conditions: single components. On the procedure: Blends of L-aspartyl-D-serine N-(2,2,4,4-tetra- methylthietan-3-yl)amide and sodium saccharin were prepared and evaluated for taste acceptability and sweetness intensity by comparison with aqueous sucrose standards.
The % synergy was calculated according to the following formula [formula] where A is the actual sweetness determined by averaging the taste panel results and T is the theoretical sweetness determined from the composition of the mixtures by weight e.g., for the 1:4 blend the theoretical sweetness is (1/5 x 1200) + (4/5 x 300) = 480.

For assay [3] the following is noted: cited from earlier work; for Sweetness potency: prior-art values.

Molecules are shown by their SMILES. Where a SMILES comes first, the peptide text is derived from it. [ ]: non-standard residue; d: D form. The star is where a group is joined. OiPr = CC(C)O*; NHBu = CCCCN*

In turn, `CC1(C)SC(C)(C)C1NC(=O)[C@@H](CO)NC(=O)[C@@H](N)CC(=O)O` [Example 3, L-Aspartyl-D-serine N-(2,2,4,4-tetramethylthietan-3-yl)amide] registered a Sweetness potency in assay [1] of 1200 x sucrose. The “Sweetness potency factors used to calculate the theoretical sweetness of the blends” value in assay [2] was 1200 x sucrose. `CC1(C)C(NC(=O)[C@@H](CO)NC(=O)[C@@H](N)CC(=O)O)C(C)(C)S1(=O)=O` [Example 4, L-Aspartyl-D-serine N-(2,2,4,4-tetamethyl-1,1-dioxothietan-3-yl)amide] yielded a Sweetness potency in assay [1] of 850 x sucrose. As for `N[C@@H](CC(=O)O)C(=O)N[C@H](CO)C(=O)NC(C1CC1)C1CC1` [Example 1, L-Aspartyl-D-serine N-(dicyclopropylcarbinyl)amide], in assay [1], the Sweetness potency worked out at 700 x sucrose. With `CCCOC(=O)[C@@H](CO)NC(=O)[C@@H](N)CC(=O)O` [L-aspartyl-D-serine n-propyl ester], the “times as sweet as a 5% sucrose standard” value in assay [3] (5% sucrose standard, Ariyoshi et al.) is 320 times. In the case of `COC[C@@H](NC(=O)[C@@H](N)CC(=O)O)C(=O)NC1C(C)(C)SC1(C)C` [Example 7], in assay [1], the Sweetness potency turned out to be 320 x sucrose. With `CC1CCC1C(=O)OC[C@@H](C)NC(=O)[C@@H](N)CC(=O)O` (some centres unmarked), the Sweetness potency in assay [3] is reported as 160 x sucrose. As to `CC(C)CNC(=O)[C@@H](C)NC(=O)[C@@H](N)CC(=O)O` [isobutyl], in assay [3], the Sweetness potency is 100 x sucrose. With `CCC(C)NC(=O)[C@@H](C)NC(=O)[C@@H](N)CC(=O)O` (some centres unmarked) [secondary butyl], the Sweetness potency in assay [3] is given as 100 x sucrose. For `COC[C@@H](NC(=O)[C@@H](N)CC(=O)O)C(=O)NC1C(C)(C)S(=O)(=O)C1(C)C` [Example 8, L-Aspartyl-D-O-methylserine N-(2,2,4,4-tetramethyl-1,1-dioxothietan-3-yl)amide], the Sweetness potency in assay [1] came out at 200 x sucrose. Consider `C[C@H](COC(=O)C1CC1)NC(=O)[C@@H](N)CC(=O)O`, for which, in assay [3], the Sweetness potency is reported as 200 x sucrose.

With `COC(=O)C(NC(=O)[C@@H](N)CC(=O)O)C(=O)OC1CCCCC1C` (stereo partly drawn) [L-aspartylaminomalonic acid methyl 2-methylcyclohexyl diester], the Sweetness potency in assay [3] was 6600 x sucrose. `CC(C)C(NC(=O)[C@@H](CO)NC(=O)[C@@H](N)CC(=O)O)C(C)C` [Example 2, L-Aspartyl-D-serine N-(2,4-dimethyl-3-pentyl)amide] gave a Sweetness potency in assay [1] of 180 x sucrose.

For the molecule `O=C1NS(=O)(=O)c2ccccc21.[Na]` [sodium saccharin], in assay [2], the “Sweetness potency factors used to calculate the theoretical sweetness of the blends” value was 300 x sucrose. `COC[C@@H](NC(=O)[C@@H](N)CC(=O)O)C(=O)NC(C1CC1)C1CC1` [Example 6, L-Aspartyl-D-O-methylserine N-(dicyclopropylcarbinyl)amide]: in assay [1], the Sweetness potency is on record as 85 x sucrose. For the molecule `C[C@H](COC(=O)C1CCC1)NC(=O)[C@@H](N)CC(=O)O`, the Sweetness potency in assay [3] is 220 x sucrose. Turning to `CCCCNC(=O)[C@@H](C)NC(=O)[C@@H](N)CC(=O)O` [n-butvlamide] (H-Asp-[dA]-NHBu), in assay [3], the Sweetness potency is 125 x sucrose. In assay [1], `CC1CCCC(C)C1NC(=O)[C@@H](CO)NC(=O)[C@@H](N)CC(=O)O` (mixture of isomers) [Example 9, L-Aspartyl-D-serine N-(dl-cis,trans-2,6-dimethylcyclohexyl)amide] gave a Sweetness potency of 200 x sucrose. With `CC(C)OC(=O)[C@@H](C)NC(=O)[C@@H](N)CC(=O)O` [L-aspartyl-D-alanine isopropyl ester] (H-Asp-[dA]-OiPr), in assay [3], the Sweetness potency entry is given as “up to 125 x sucrose”. As to `C[C@@H](NC(=O)[C@@H](N)CC(=O)O)C(=O)NC1CCCCC1` [cyclohexyl], the Sweetness potency in assay [3] was 100 x sucrose.
